Source: ChEMBL document CHEMBL1201862, “PubChem BioAssay data set” (2004)
Calls of active or inactive are those of the source.

Assays:
[1] = inhibitors of clade B AD8 Env fusion, dose response, cell-based, cherry-pick (AID 652062); type: functional;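 further: luciferase signal from cell-cell fusion driven by HIV-1 clade B AD8 Env; potency is for inhibitors of fusion seen as a drop in luminescence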
[2] = ZM109 Env clade C HIV-1 fusion inhibitors, dose response, HeLa effector, CEM target cells, luciferase, cherry-pick (AID 652058); type: functional, cell-based
[3] = inhibitors of HIV Env-driven cell fusion, dose response, cherry-pick (AID 652057); type: functional, cell-based
[4] = off-target signal loss in HeLa-CEM21 co-culture – HeLa F-luc CTL cells, cherry-picked, counter-screen for HIV-1 Env fusion inhibitor project, dose response (AID 652040); type: functional, cell-based;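 further: potency for signal decrease marking cytotoxic or nonspecific inhibition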
Interleukin-8 = Interleukin-8 (Homo sapiens, UniProt P10145); assay: Dose Response confirmation of uHTS small molecule hits for cystic fibrosis induced NFkb Inhibitors in a PAF-induced IL8 counterscreen.; type: functional; conditions: read-out: IC50_Mean
Chain of Interleukin-8 (P10145 whole entry): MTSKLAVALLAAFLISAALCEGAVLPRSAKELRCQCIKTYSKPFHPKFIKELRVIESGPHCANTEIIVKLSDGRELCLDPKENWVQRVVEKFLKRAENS

cells = type: functional, cell-based; conditions: HEK-CNG
Galanin receptor type 3 = Galanin receptor type 3 (Homo sapiens, UniProt O60755); assay: Fluorescence-based cell-based primary high throughput dose response assay to identify antagonists of the Galanin Receptor 3 (GalR3).; type: functional
Chain of Galanin receptor type 3 (O60755 whole entry): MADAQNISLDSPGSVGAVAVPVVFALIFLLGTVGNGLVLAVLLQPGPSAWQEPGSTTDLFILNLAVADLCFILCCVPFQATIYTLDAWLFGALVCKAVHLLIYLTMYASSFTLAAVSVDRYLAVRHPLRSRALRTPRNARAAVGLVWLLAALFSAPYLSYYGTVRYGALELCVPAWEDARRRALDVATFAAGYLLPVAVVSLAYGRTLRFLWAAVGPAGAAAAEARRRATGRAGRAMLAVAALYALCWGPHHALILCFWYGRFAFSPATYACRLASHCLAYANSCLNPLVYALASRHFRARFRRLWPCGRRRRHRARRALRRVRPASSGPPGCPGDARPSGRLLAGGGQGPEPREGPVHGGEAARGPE

[5] = human group III sPLA2 inhibitors, dose response, biochemical, QFRET, IC50 (AID 743457);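 further: green fluorescence rise as the enzyme cleaves BODIPY PC-A2 in liposomes; potency for inhibition of the enzyme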
[6] = target: T1, Long-chain-fatty-acid--AMP ligase FadD28 (Mycobacterium tuberculosis, UniProt P9WQ59); assay: Fluorescence polarization aasay to screen for inhibitors that compete for the binding of FadD28 to a bisubstrate Measured in Biochemical System Using Plate Reader - 2147-01_Inhibitor_Dose_CherryPick_Activity.; type: functional, Mycobacterium tuberculosis H37Rv
T1 sequence (P9WQ59 whole entry): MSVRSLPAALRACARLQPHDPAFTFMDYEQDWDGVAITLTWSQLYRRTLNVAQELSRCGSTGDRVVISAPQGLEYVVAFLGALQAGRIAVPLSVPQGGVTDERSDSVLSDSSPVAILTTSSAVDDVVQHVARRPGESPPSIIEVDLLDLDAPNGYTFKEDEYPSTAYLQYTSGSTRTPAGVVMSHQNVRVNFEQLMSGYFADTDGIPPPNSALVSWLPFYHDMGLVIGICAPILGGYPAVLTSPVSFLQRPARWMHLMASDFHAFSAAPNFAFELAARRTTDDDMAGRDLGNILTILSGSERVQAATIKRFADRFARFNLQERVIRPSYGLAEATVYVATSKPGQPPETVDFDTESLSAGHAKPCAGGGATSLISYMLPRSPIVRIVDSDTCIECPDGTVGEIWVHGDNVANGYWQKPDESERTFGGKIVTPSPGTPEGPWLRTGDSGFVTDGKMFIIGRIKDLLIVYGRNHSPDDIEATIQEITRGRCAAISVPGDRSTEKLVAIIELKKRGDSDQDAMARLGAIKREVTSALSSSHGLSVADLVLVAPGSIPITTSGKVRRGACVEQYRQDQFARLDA

H9c2 = assay: cells; type: functional, cell-based; conditions: Rattus norvegicus, H9c2, Myocardium;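 further: confirmatory concentration-response retest of ultra-high-throughput screening hits for modulation of myocardial damage; cell death induced by hydrogen peroxide oxidative stress; compound pretreatment for 60 min then peroxide exposure for 2 h; potency is for protecting the cells against peroxide damage rather than for killing them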
[7] = target: T2, Oxysterols receptor LXR-beta (Homo sapiens, UniProt P55055); type: functional, cell-based;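 further: agonist activity at LXR measured by a cell-based luminescence readout across a dose range, run as a counterscreen for daf-12 agonists; HEK293 cells with Gal4-LXR fusion and GAL4-driven luciferase reporter; potency for activation of Gal4-LXR reporter so compounds are agonists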
T2 sequence (P55055 whole entry): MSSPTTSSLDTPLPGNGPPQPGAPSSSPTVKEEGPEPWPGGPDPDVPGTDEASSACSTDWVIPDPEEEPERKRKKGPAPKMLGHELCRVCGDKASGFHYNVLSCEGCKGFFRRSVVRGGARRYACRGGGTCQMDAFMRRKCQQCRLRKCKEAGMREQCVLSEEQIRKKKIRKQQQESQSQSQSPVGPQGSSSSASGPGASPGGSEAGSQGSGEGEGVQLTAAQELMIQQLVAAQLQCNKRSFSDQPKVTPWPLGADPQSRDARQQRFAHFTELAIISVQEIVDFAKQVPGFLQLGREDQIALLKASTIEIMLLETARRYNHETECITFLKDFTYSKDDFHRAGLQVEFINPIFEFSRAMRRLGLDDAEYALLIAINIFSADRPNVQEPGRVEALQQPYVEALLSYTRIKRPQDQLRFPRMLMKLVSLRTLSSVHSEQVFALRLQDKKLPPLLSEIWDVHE

[8] = inhibitors of intracellular T. cruzi replication, confirmation, NIH3T3 host cells, beta-gal luminescence (AID 2044); type: functional, cell-based;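 further: intracellular parasites grown in NIH/3T3 mouse fibroblasts as host cells; luminescent beta-galactosidase reporter signal from transgenic T. cruzi replicating inside host cells; inhibitors lower the luminescence signal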
[9] = target: T3, Sentrin-specific protease 8 (Homo sapiens, UniProt Q96LD8); type: functional
T3 sequence (Q96LD8 whole entry): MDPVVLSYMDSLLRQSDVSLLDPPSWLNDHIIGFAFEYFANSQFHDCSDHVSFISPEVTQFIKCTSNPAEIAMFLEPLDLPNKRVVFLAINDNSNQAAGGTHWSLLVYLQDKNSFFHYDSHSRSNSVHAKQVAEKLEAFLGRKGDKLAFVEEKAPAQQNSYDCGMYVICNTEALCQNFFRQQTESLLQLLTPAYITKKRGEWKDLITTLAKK

[10] = target: T3, Sentrin-specific protease 8; type: functional; remark: listed apart in the source
[11] = cytotoxicity toward NIH3T3 fibroblasts, dose response, counter-screen, cell-based, ATP luminescence, mouse fibroblasts (AID 2010); type: functional;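 further: cells exposed to compound for about 90 hours before reading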
[12] = cytotoxicity in HEK-293T cells, dose response, cytotoxicity control for BCR NF-kB inhibitor project, luminescence, B-cell screen hits (AID 489021); type: functional, cell-based;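 further: HEK-293T cells carrying an NF-kB luciferase reporter; cells exposed to compound for about 14 hours before viability readout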
[13] = target: FAD-linked sulfhydryl oxidase ALR (Homo sapiens, UniProt P55789); assay: inhibitors of human ALR sulfhydryl oxidase, dose response, biochemical, H2O2 detection, luminescence, cherry-pick (AID 493248)
Chain of FAD-linked sulfhydryl oxidase ALR (P55789 whole entry): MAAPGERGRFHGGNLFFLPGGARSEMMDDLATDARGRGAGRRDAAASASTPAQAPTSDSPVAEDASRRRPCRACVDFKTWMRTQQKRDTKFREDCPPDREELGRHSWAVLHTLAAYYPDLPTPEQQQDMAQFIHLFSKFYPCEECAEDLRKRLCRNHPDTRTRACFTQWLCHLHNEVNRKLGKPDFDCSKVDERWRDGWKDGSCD

[14] = target: Adenosylmethionine-8-amino-7-oxononanoate aminotransferase (Mycobacterium tuberculosis, UniProt P9WQ81); assay: Mycobacterium tuberculosis BioA enzyme inhibitor Measured in Biochemical System Using Plate Reader - 2163-02_Inhibitor_Dose_CherryPick_Activity.; type: functional, Mycobacterium tuberculosis UT205
Chain of Adenosylmethionine-8-amino-7-oxononanoate aminotransferase (P9WQ81 whole entry): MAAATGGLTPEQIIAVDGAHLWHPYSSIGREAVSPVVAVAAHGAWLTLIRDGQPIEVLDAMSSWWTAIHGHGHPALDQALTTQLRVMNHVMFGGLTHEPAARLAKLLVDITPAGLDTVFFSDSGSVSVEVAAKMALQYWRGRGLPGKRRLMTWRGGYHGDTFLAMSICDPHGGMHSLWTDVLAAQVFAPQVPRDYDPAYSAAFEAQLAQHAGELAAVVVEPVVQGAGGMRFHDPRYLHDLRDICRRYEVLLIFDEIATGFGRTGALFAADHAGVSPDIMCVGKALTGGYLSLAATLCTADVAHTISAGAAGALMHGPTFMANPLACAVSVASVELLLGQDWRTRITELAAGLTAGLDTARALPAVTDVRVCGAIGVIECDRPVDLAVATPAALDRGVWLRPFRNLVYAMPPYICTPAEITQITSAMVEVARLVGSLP

[15] = growth suppression of beta-catenin-knockout colon cells, dose response, cell-based, HCT116, human colon tumor (AID 1045); type: functional;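 further: HCT116 colon tumor cells with beta catenin knocked out; cells exposed to compound for 60 hours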
[16] = target: T4, Probable nicotinate-nucleotide adenylyltransferase (Staphylococcus aureus (strain N315), UniProt P65502); type: functional, Staphylococcus aureus subsp. aureus N315;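 on IC50 Mean: confirmatory dose-response retesting of NadD inhibitor hits first found in an ultra-high-throughput screen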
T4 sequence (P65502 whole entry): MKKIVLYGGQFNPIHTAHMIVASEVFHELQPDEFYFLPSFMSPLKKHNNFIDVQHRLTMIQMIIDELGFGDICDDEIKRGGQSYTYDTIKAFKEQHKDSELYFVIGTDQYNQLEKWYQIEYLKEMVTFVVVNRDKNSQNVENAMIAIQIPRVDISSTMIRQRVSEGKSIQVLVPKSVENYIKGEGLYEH

[17] = growth suppression of PTEN-null colon cells, dose response, cell-based, HCT116 PTEN knockout (AID 1047); type: functional;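 further: HCT116 colon tumor cells with PTEN knocked out; cells exposed to compound for 60 hours before readout; potency for loss of cell viability measured by luminescence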
[18] = target: T4, Probable nicotinate-nucleotide adenylyltransferase; type: functional, Staphylococcus aureus subsp. aureus N315; conditions: read-out: IC50_Mean
HEK293 = assay: inhibitors of LMP1-driven NF-kB reporter, dose response, cell-based, HEK293, luciferase, cherry-pick (AID 588343); type: functional; conditions: Homo sapiens
[19] = target: T5, Methionyl-tRNA synthetase, putative (Trypanosoma brucei brucei, UniProt Q38C91); type: functional, Trypanosoma brucei brucei strain 927/4 GUTat10.1
T5 sequence (Q38C91 whole entry): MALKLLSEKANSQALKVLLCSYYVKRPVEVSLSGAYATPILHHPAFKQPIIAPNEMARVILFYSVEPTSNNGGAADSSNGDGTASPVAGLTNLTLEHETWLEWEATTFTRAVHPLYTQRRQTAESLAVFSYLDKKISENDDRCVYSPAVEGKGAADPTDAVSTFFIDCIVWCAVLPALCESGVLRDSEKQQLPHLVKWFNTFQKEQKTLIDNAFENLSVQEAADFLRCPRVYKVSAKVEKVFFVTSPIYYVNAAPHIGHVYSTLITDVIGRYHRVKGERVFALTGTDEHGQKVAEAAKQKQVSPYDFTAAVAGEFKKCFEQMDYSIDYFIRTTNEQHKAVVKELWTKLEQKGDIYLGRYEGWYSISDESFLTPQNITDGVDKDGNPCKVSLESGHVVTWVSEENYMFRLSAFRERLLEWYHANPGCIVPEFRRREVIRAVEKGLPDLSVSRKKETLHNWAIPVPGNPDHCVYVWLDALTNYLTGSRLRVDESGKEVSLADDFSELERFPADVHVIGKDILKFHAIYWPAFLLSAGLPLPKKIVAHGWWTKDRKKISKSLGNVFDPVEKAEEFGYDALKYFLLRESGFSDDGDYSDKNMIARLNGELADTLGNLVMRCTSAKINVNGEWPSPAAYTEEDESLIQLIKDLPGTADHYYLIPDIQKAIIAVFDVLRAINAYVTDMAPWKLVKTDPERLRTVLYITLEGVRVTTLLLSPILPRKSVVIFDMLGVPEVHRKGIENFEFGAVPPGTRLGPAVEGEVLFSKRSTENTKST

[20] = Counterscreen for inhibitors of Trypanosoma brucei methionyl tRNA synthetase (MetRS): Luminescence-based cell-based high throughput dose response assay to identify compounds that are cytotoxic to Jurkat human T lymphocyte cells.; type: functional
[21] = target: T5, Methionyl-tRNA synthetase, putative; type: functional, Trypanosoma brucei brucei strain 927/4 GUTat10.1; remark: listed apart in the source
[22] = ADAM10 protease inhibitors, dose response, selectivity assay for ADAM17 exosite inhibitor project, biochemical, FRET peptide substrate, recombinant human ADAM10 (AID 743259);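 further: ADAM10 enzyme cleaving a FRET peptide substrate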
[23] = target: Disintegrin and metalloproteinase domain-containing protein 17 (Homo sapiens, UniProt P78536); assay: exosite inhibitors of ADAM17, dose response, biochemical (AID 743260)
Chain of Disintegrin and metalloproteinase domain-containing protein 17 (P78536 whole entry, the tested form may be a part): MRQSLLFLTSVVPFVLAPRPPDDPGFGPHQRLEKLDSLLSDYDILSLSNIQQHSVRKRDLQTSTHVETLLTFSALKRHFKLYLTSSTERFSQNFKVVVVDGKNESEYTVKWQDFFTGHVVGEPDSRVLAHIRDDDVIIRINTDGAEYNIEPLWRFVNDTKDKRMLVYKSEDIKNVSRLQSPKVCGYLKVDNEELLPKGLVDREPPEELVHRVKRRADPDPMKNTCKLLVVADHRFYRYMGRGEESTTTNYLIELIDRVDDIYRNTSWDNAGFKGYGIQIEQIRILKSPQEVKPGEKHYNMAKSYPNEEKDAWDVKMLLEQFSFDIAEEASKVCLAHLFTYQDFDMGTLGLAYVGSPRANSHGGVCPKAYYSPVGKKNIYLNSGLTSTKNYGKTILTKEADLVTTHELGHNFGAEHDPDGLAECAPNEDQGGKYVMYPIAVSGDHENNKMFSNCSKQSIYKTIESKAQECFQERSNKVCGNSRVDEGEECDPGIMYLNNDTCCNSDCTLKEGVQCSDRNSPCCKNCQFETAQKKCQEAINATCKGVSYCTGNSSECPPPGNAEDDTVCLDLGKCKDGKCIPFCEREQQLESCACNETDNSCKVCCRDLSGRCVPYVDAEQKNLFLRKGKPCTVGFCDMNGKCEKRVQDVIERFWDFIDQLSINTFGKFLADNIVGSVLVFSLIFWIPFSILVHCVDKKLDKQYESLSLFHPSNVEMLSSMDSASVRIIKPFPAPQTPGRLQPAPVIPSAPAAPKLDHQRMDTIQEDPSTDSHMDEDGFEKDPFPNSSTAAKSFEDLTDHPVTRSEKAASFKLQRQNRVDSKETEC

[24] = HepG2 cell cytotoxicity, dose response, cytotoxicity control for Shn3 inhibitor project, CellTiter-Glo, cherry-picked (AID 624134); type: functional, cell-based
[25] = Shn3 3'UTR reporter inhibitors, dose response, cell-based, Clone20 osteoblasts, firefly luciferase, cherry-picked (AID 624132); type: functional;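 further: firefly luciferase luminescence from reporter carrying the Shn3 3'UTR in osteoblasts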
[26] = control 3'UTR Renilla luciferase suppression, dose response, counter-screen for Shn3 inhibitor project, cell-based, Clone20-Shn3RL, cherry-picked (AID 624133); type: functional
[27] = cytotoxicity in OVCAR8 ovarian cancer cells, dose response, PAX8 project, cell-based, plate reader, dry powder samples (AID 743197); type: functional; conditions: OVCAR-8
Paired box protein Pax-8 = Paired box protein Pax-8 (Homo sapiens, UniProt Q06710); assay: inhibitors of PAX8-driven TPO luciferase reporter, dose response, RMG-I cells, cherry-pick (AID 687027); type: functional, cell-based;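 further: luciferase reporter driven by Pax8 target thyroperoxidase promoter measured by SteadyGlo luminescence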
Chain of Paired box protein Pax-8 (Q06710 whole entry): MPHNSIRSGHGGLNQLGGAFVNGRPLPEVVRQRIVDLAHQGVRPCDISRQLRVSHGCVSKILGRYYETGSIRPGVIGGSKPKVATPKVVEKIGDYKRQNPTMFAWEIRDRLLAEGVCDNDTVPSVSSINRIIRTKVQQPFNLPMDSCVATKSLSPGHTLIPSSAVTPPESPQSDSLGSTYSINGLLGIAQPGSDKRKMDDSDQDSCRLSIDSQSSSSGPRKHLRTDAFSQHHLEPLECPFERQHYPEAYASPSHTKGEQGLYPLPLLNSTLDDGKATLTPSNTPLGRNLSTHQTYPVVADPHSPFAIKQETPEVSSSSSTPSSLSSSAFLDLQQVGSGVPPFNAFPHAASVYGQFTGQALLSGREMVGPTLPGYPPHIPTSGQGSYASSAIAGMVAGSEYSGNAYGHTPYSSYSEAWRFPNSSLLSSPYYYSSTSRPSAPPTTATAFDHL

[28] = NIH:OVCAR-3 ovarian cancer cell cytotoxicity, dose response, PAX8 inhibitor project, plate reader, dry powder samples (AID 743044); type: functional, cell-based
[29] = Late stage assay provider results from the probe development effort to identify inhibitors of the Plasmodium falciparum M17 Leucine Aminopeptidase (M17LAP): radiolabel-based cell-based dose response assay to identify compounds that inhibit P. falciparum growth in RBCs Set 2.; type: functional
[30] = T. cruzi growth inhibition in host cells, dose response, cell-based, plate reader, dry powder, set 2 (AID 652275); type: functional

SMILES: COc1ccc(C2=Nn3c(nnc3-c3ccncc3)SC2)cc1
- AC50 [1]: 1.03 µM (active)
- AC50 [2]: 1.13 µM (active)
- AC50 [3]: 2.02 µM (active)
- AC50 [4]: 2.34 µM (active)
- IC50 (Interleukin-8): 40.8 µM (inactive)

SMILES: CNC(=O)NC(=O)CSc1nnc(-c2ccc(F)cc2)n1CC1CCCO1 (stereo not drawn)
- EC50 (cells): > 29.9 µM (inactive)
- IC50 (Galanin receptor type 3): > 29.9 µM (inactive)

SMILES: CCOC(=O)N1CCN(S(=O)(=O)c2ccc(C(=O)NNc3nc4c(C)cccc4s3)cc2)CC1
- IC50 [5]: 25.9 µM (inactive)
- AC50 [6]: 22.1 µM (active)
- IC50 (H9c2): 14.2 µM (active)

SMILES: Cc1ccc2nc(-c3ccccn3)oc2c1
- EC50 [7]: > 67.6 µM (inactive)

SMILES: CCc1ccc(/C=C(/C#N)C(N)=S)cc1
- IC50 [5]: > 122 µM (inactive)

SMILES: Cc1ccc(Sc2cc(NCCCO)c([N+](=O)[O-])c3nonc23)cc1
- EC50 [8]: 2.2 µM (active)
- IC50 [9]: 18.1 µM (active)
- IC50 [10]: 23.3 µM (active)
- EC50 [11]: > 60 µM (not active)
- IC50 [12]: > 80 µM (inactive)

SMILES: O=C(Nc1ccc2snnc2c1)N1CCN(c2ccccc2)CC1
- AC50 [13]: 0.913 µM (active)
- AC50 [14]: 0.0986 µM (active)

SMILES: O=C(NC(=S)Nc1cc(-c2nc3ccccc3[nH]2)ccc1Cl)c1ccc2c(c1)OCO2
- EC50 [15]: 2.23 µM (active)
- IC50 [16]: 21.1 µM (active)
- EC50 [17]: 1.53 µM (active)
- IC50 [18]: 58.9 µM (active)

SMILES: Cc1cccc(Nc2[nH]nc(C)c2[N+](=O)[O-])c1
- EC50 [7]: > 67.5 µM (inactive)

SMILES: CC(=O)c1c(C)n(C2CCCCC2)c2ccc(O)cc12
- IC50 (Interleukin-8): > 79 µM (inactive)
- AC50 (HEK293): 3.23 µM (active)

SMILES: COc1ccc(CNC(=O)CSc2n[nH]c3c4ccccc4nc-3n2)cc1
- IC50 [19]: 1.54 µM (active)
- IC50 [20]: 83.3 µM (inactive)
- IC50 [21]: 4.39 µM (active)

SMILES: CC1(OC(=O)C2CCCC2)C(=O)C=C2C=C(c3ccc(C#N)cc3)OC=C2C1=O (stereo not drawn)
- IC50 [16]: 6.57 µM (active)
- IC50 [18]: 15.7 µM (active)

SMILES: COc1cccc(CN2C(=O)[C@@H]3Cc4c([nH]c5ccccc45)C(C)(C)N3C2=O)c1
- IC50 [22]: > 69.4 µM (inactive)
- IC50 [23]: > 69.4 µM (inactive)

SMILES: COc1ccc(-c2coc3c(C(=O)NCc4ccc(OC)c(OC)c4)cccc23)c(C)c1
- EC50 (cells): > 29.9 µM (inactive)
- AC50 [24]: 1.77 µM (active)
- AC50 [25]: 0.722 µM (active)
- AC50 [26]: 1.4 µM (active)
- IC50 (Galanin receptor type 3): 0.358 µM (active)

SMILES: Cc1ccc(S(=O)(=O)Nc2ccc3c(c2)C(=O)N([C@H](C)CO)C[C@H](C)[C@@H](CN(C)S(=O)(=O)c2cccs2)OCCCC[C@H](C)O3)cc1
- AC50 [27]: > 70 µM (inactive)
- AC50 (Paired box protein Pax-8): 4.23 µM (active)
- AC50 [28]: 20.5 µM (active)

SMILES: COCCNC(=O)C[C@@H]1C[C@H]2c3cc(NC(=O)Nc4ccc(C(F)(F)F)cc4)ccc3O[C@H]2[C@H](CO)O1
- AC50 [27]: > 70 µM (inactive)
- AC50 (Paired box protein Pax-8): 26.6 µM (active)

SMILES: Cc1[nH]n(-c2ccccc2)c(=O)c1S(=O)(=O)c1ccccc1
- IC50 [9]: 4.99 µM (active)
- IC50 [10]: 12.8 µM (active)

SMILES: CCCCOc1ccc(CNc2c(N(C)O)c(=O)c2=O)cc1
- IC50 [29]: 19 µM (inactive)

SMILES: CCOc1ccc(CC(=O)NO)cc1
- IC50 [29]: 7.2 µM (active)

SMILES: CC(C)N1C[C@H](C)[C@@H](CN(C)Cc2ccc(Cl)c(Cl)c2)Oc2c(cccc2-c2cn(-c3ccncc3)nn2)C1=O
- AC50 [30]: 0.00149 µM (active)
